# Experimental data as given in the supplement of paper PMC10307832.
# Experiments:
# Assay in all cases: relative viability (nuclei count vs DMSO), 5 days (fraction); higher = more cells survive
# NCI-H2342 = system: NCI-H2342
# Outline: (§1)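 Each reported value is a median over duplicate plates. It expresses relative viability: treated-well nuclei count divided by vehicle-well nuclei count. Lung cancer cell lines in 1536-well plates were dosed by pin tool a day after seeding, alone with one drug or with a fixed anchor-drug dose plus five library-drug doses (not always all listed) in √10 steps, and nuclei were counted after 5 days.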
# NCI-H650 = system: NCI-H650
# Outline: as §1
# HCC-366 = system: HCC-366
# Outline: as §1
# NCI-H2347 = system: NCI-H2347
# Outline: as §1
# SW 1573 = system: SW 1573
# Outline: as §1
# NCI-H2228 = system: NCI-H2228
# Outline: as §1
# A-427 = system: A-427
# Outline: as §1
# HCC-827 = system: HCC-827
# Outline: as §1
# NCI-H1993 = system: NCI-H1993
# Outline: as §1
# LC-2-ad = system: LC-2-ad
# Outline: as §1
# NCI-H23 = system: NCI-H23
# Outline: as §1
# NCI-H1755 = system: NCI-H1755
# Outline: as §1
structure (smiles),measurement,setting,value
CCNC(=O)c1noc(-c2cc(C(C)C)c(O)cc2O)c1-c1ccc(CN2CCOCC2)cc1 [Luminespib] + N=C(N)NC(=N)NCCc1ccccc1 [Phenformin] (partner 250 µM),relative viability,NCI-H2342; first compound 0.002 µM,0.549
same,relative viability,NCI-H2342; first compound 0.006325 µM,0.581
same,relative viability,NCI-H2342; first compound 0.02 µM,0.454
same,relative viability,NCI-H2342; first compound 0.06325 µM,0.606
same,relative viability,NCI-H2342; first compound 0.2 µM,0.355
same,relative viability,NCI-H650; first compound 0.002 µM,0.437
same,relative viability,NCI-H650; first compound 0.006325 µM,0.453
same,relative viability,NCI-H650; first compound 0.02 µM,0.391
same,relative viability,NCI-H650; first compound 0.06325 µM,0.213
same,relative viability,NCI-H650; first compound 0.2 µM,0.121
same,relative viability,HCC-366; first compound 0.002 µM,0.686
same,relative viability,HCC-366; first compound 0.006325 µM,0.59
same,relative viability,HCC-366; first compound 0.02 µM,0.697
same,relative viability,HCC-366; first compound 0.06325 µM,0.0486
same,relative viability,HCC-366; first compound 0.2 µM,0.0355
same,relative viability,NCI-H2347; first compound 0.002 µM,0.406
same,relative viability,NCI-H2347; first compound 0.006325 µM,0.269
same,relative viability,NCI-H2347; first compound 0.02 µM,0.417
same,relative viability,NCI-H2347; first compound 0.06325 µM,0.381
same,relative viability,NCI-H2347; first compound 0.2 µM,0.198
same,relative viability,SW 1573; first compound 0.002 µM,0.39
same,relative viability,SW 1573; first compound 0.006325 µM,0.339
same,relative viability,SW 1573; first compound 0.02 µM,0.262
same,relative viability,SW 1573; first compound 0.06325 µM,0.0845
same,relative viability,SW 1573; first compound 0.2 µM,0.0847
same,relative viability,NCI-H2228; first compound 0.002 µM,0.314
same,relative viability,NCI-H2228; first compound 0.006325 µM,0.288
same,relative viability,NCI-H2228; first compound 0.02 µM,0.115
same,relative viability,NCI-H2228; first compound 0.06325 µM,0.102
same,relative viability,NCI-H2228; first compound 0.2 µM,0.0912
same,relative viability,A-427; first compound 0.002 µM,0.354
same,relative viability,A-427; first compound 0.006325 µM,0.377
same,relative viability,A-427; first compound 0.02 µM,0.275
same,relative viability,A-427; first compound 0.06325 µM,0.101
same,relative viability,A-427; first compound 0.2 µM,0.128
same,relative viability,HCC-827; first compound 0.002 µM,0.385
same,relative viability,HCC-827; first compound 0.006325 µM,0.384
same,relative viability,HCC-827; first compound 0.02 µM,0.369
same,relative viability,HCC-827; first compound 0.06325 µM,0.281
same,relative viability,HCC-827; first compound 0.2 µM,0.141
same,relative viability,NCI-H1993; first compound 0.002 µM,0.46
same,relative viability,NCI-H1993; first compound 0.006325 µM,0.474
same,relative viability,NCI-H1993; first compound 0.02 µM,0.476
same,relative viability,NCI-H1993; first compound 0.06325 µM,0.394
same,relative viability,NCI-H1993; first compound 0.2 µM,0.36
same,relative viability,LC-2-ad; first compound 0.002 µM,0.531
same,relative viability,LC-2-ad; first compound 0.006325 µM,0.497
same,relative viability,LC-2-ad; first compound 0.02 µM,0.551
same,relative viability,LC-2-ad; first compound 0.06325 µM,0.25
same,relative viability,LC-2-ad; first compound 0.2 µM,0.231
same,relative viability,NCI-H23; first compound 0.002 µM,0.821
same,relative viability,NCI-H23; first compound 0.006325 µM,0.727
same,relative viability,NCI-H23; first compound 0.02 µM,0.611
same,relative viability,NCI-H23; first compound 0.06325 µM,0.359
same,relative viability,NCI-H23; first compound 0.2 µM,0.16
same,relative viability,NCI-H1755; first compound 0.002 µM,0.609
same,relative viability,NCI-H1755; first compound 0.006325 µM,0.552
